How the values were obtained:
Format in all cases: in vivo
[1] = tested on: Myzus persicae (Green Peach Aphid); assay: Myzus persicae (green peach aphid), sprayed sunflower leaf discs; conditions: foliar, 144 h, application rate of 200 ppm, mixed ages on sunflower leaf discs, 6 days after infestation
Method: Example B4: Myzus persicae (Green Peach Aphid)
(§1) Sunflower leaf discs were placed on agar in a 24-well microtiter plate and sprayed with aqueous test solutions prepared from 10′000 ppm DMSO stock solutions. After drying, the leaf discs were infested with an aphid population of mixed ages. The samples were assessed for mortality 6 days after infestation.

[2] = tested on: Plutella xylostella (Diamond Back Moth); assay: Plutella xylostella (diamond back moth), treated artificial diet; conditions: 120 h, application rate of 200 ppm, L2 larvae on artificial diet, 5 days after infestation, read-out: effect in at least one of the two categories (mortality or growth inhibition)
Method: Example B6: Plutella xylostella (Diamond Back Moth)
(§2) 24-well microtiter plates with artificial diet were treated with aqueous test solutions prepared from 10′000 ppm DMSO stock solutions by pipetting. After drying, the plates were infested with L2 larvae (10 to 15 per well). The samples were assessed for mortality and growth inhibition in comparison to untreated samples 5 days after infestation.
The following compounds gave an effect of at least 80% in at least one of the two categories (mortality or growth inhibition) at an application rate of 200 ppm: […]

[3] = tested on: Myzus persicae (Green Peach Aphid); assay: Myzus persicae (green peach aphid), roots of pea seedlings in test solution; conditions: 144 h, test rate of 24 ppm, roots of infested pea seedlings in test solution, 6 days
Method: Example B5: Myzus persicae (Green Peach Aphid)
Roots of pea seedlings infested with an aphid population of mixed ages were placed directly in the aqueous test solutions prepared from 10′000 DMSO stock solutions. The samples were assessed for mortality 6 days after placing seedlings in test solutions.

[4] = tested on: Diabrotica balteata (Corn Root Worm); assay: Diabrotica balteata (corn root worm), sprayed maize sprouts; conditions: 96 h, application rate of 200 ppm, L2 larvae on maize sprouts, 4 days after infestation
Method: Example B2: Diabrotica balteata (Corn Root Worm)
as §2, with “Maize sprouts, placed on an agar layer in 24-well” for “24-well”, “plates” for “plates with artificial diet”, “spraying.” for “pipetting.”, “(6” for “(10”, “10” for “15”, “4” for “5”

[5] = tested on: Euschistus heros (Neotropical Brown Stink Bug); assay: Euschistus heros (neotropical brown stink bug), sprayed soybean leaf; conditions: 120 h, application rate of 200 ppm, N-2 nymphs on soybean leaf, 5 days after infestation
Method: Example B3: Euschistus heros (Neotropical Brown Stink Bug)
Soybean leaf on agar in 24-well microtiter plates were sprayed with aqueous test solutions prepared from 10′000 ppm DMSO stock solutions. After drying the leaf were infested with N-2 nymphs. The samples were assessed for mortality in comparison to untreated samples 5 days after infestation.

[6] = tested on: Bemisia tabaci (Cotton White Fly); assay: Bemisia tabaci (cotton white fly), sprayed cotton leaf discs; conditions: foliar, 144 h, application rate of 200 ppm, adult white flies on cotton leaf discs, 6 days after incubation
Method: Example B1: Bemisia tabaci (Cotton White Fly)
Cotton leaf discs were placed on agar in 24-well microtiter plates and sprayed with aqueous test solutions prepared from 10′000 ppm DMSO stock solutions. After drying the leaf discs were infested with adult white flies. The samples were checked for mortality 6 days after incubation.

[7] = tested on: Spodoptera littoralis (Egyqptian Cotton Leaf Worm); assay: Spodoptera littoralis (Egyptian cotton leaf worm), sprayed cotton leaf discs; conditions: foliar, 72 h, application rate of 200 ppm, L1 larvae on cotton leaf discs, 3 days after infestation
Method: Example B7: Spodoptera littoralis (Egyqptian Cotton Leaf Worm)
Cotton leaf discs were placed on agar in 24-well microtiter plates and sprayed with aqueous test solutions prepared from 10′000 ppm DMSO stock solutions. After drying the leaf discs were infested with five L1 larvae. The samples were assessed for mortality, anti-feedant effect, and growth inhibition in comparison to untreated samples 3 days after infestation. Control of Spodoptera littoralis by a test sample is when at least one of mortality, anti-feedant effect, and growth inhibition is higher than the untreated sample.

[8] = tested on: Spodoptera littoralis (Egyqptian Cotton Leaf Worm); assay: Spodoptera littoralis (Egyptian cotton leaf worm), compound in agar taken up by lettuce roots; conditions: 144 h, test rate of 12.5 ppm, uptake by lettuce roots from agar, 6 days after infestation, read-out: effect in at least one of the three categories (mortality, anti-feedancy, or growth inhibition)
Text: Example B8: Spodoptera littoralis (Egyqptian Cotton Leaf Worm)
Test compounds were applied by pipette from 10′000 ppm DMSO stock solutions into 24-well plates and mixed with agar. Lettuce seeds were placed on the agar and the multi well plate was closed by another plate which contains also agar. After 7 days the roots have absorbed the compound and the lettuce has grown into the lid plate. The lettuce leafs were now cut off into the lid plate. Spodoptera eggs were pipetted through a plastic stencil on a humid gel blotting paper and the plate closed with it. The samples were assessed for mortality, anti-feedant effect and growth inhibition in comparison to untreated samples 6 days after infestation.
The following compounds gave an effect of at least 80% in at least one of the three categories (mortality, anti-feedancy, or growth inhibition) at a test rate of 12.5 ppm: […]

[9] = tested on: Frankliniella occidentalis (Western Flower Thrips); assay: Frankliniella occidentalis (western flower thrips), sprayed sunflower leaf discs; conditions: foliar, 168 h, application rate of 200 ppm, mixed ages on sunflower leaf discs, 7 days after infestation
Method: Example B11: Frankliniella occidentalis (Western Flower Thrips)
as §1, with “in” for “in a”, “plates” for “plate”, “[…]” for “10′000 ppm”, “drying” for “drying,”, “a Frankliniella” for “an aphid”, “7” for “6”

CCS(=O)(=O)c1cc(-c2cncc(Cl)c2)cnc1-c1nc2cc(C(F)(F)F)ncc2n1C [Compound P3]
≥ 80%: mortality at 200 ppm [1] | percent effect (mortality or growth inhibition) at 200 ppm [2] | mortality at 24 ppm [3] | mortality at 200 ppm [4] | mortality at 200 ppm [5]

CCS(=O)(=O)c1cc(-c2cnn(C)c2)cnc1-c1nc2cc(C(F)(F)F)ncc2n1C [Compound P6]
≥ 80%: mortality at 200 ppm [6] | mortality at 200 ppm [1] | percent effect (mortality or growth inhibition) at 200 ppm [2] | mortality at 24 ppm [3] | percent control (mortality, anti-feedant effect or growth inhibition) at 200 ppm [7] | percent control (mortality, anti-feedancy or growth inhibition) at 12.5 ppm [8] | mortality at 200 ppm [4] | mortality at 200 ppm [5]

CCS(=O)(=O)c1cc(-c2cnc(OC)nc2)cnc1-c1nc2cc(C(F)(F)F)ncc2n1C [Compound P9]
≥ 80%: mortality at 200 ppm [1] | percent effect (mortality or growth inhibition) at 200 ppm [2] | mortality at 24 ppm [3] | percent control (mortality, anti-feedant effect or growth inhibition) at 200 ppm [7]

CCS(=O)(=O)c1cc(-c2ncc(C)cn2)cnc1-c1nc2cc(C(F)(F)F)ncc2n1C [Compound P22]
≥ 80%: mortality at 200 ppm [6] | mortality at 200 ppm [1] | percent effect (mortality or growth inhibition) at 200 ppm [2] | mortality at 24 ppm [3] | percent control (mortality, anti-feedant effect or growth inhibition) at 200 ppm [7] | percent control (mortality, anti-feedancy or growth inhibition) at 12.5 ppm [8] | mortality at 200 ppm [4] | mortality at 200 ppm [5]

CCS(=O)(=O)c1cc(-n2ccccc2=O)cnc1-c1nc2cc(C(F)(F)F)ncc2n1C [Compound P26]
≥ 80%: mortality at 200 ppm [1] | percent effect (mortality or growth inhibition) at 200 ppm [2] | mortality at 24 ppm [3] | mortality at 200 ppm [4] | mortality at 200 ppm [5]

CCS(=O)(=O)c1cc(-c2ncccc2Cl)cnc1-c1nc2cc(C(F)(F)F)ncc2n1C [Compound P32]
≥ 80%: mortality at 200 ppm [1] | percent effect (mortality or growth inhibition) at 200 ppm [2] | percent control (mortality, anti-feedant effect or growth inhibition) at 200 ppm [7] | percent control (mortality, anti-feedancy or growth inhibition) at 12.5 ppm [8] | mortality at 200 ppm [9] | mortality at 200 ppm [4] | mortality at 200 ppm [5]

CCS(=O)(=O)c1cc(-c2ccnnc2)cnc1-c1nc2cc(C(F)(F)F)ncc2n1C [Compound P33]
≥ 80%: mortality at 200 ppm [6] | mortality at 200 ppm [1] | mortality at 24 ppm [3] | mortality at 200 ppm [4] | mortality at 200 ppm [5]

CCS(=O)(=O)c1cc(-c2cccn3ncnc23)cnc1-c1nc2cc(C(F)(F)F)ncc2n1C [Compound P34]
≥ 80%: mortality at 200 ppm [1] | percent effect (mortality or growth inhibition) at 200 ppm [2] | mortality at 24 ppm [3] | percent control (mortality, anti-feedant effect or growth inhibition) at 200 ppm [7] | mortality at 200 ppm [4] | mortality at 200 ppm [5]

CCS(=O)(=O)c1cc(-c2cnc3nc(C)ccn23)cnc1-c1nc2cc(C(F)(F)F)ncc2n1C [Compound P37]
≥ 80%: mortality at 200 ppm [1] | percent effect (mortality or growth inhibition) at 200 ppm [2] | mortality at 24 ppm [3] | mortality at 200 ppm [4] | mortality at 200 ppm [5]

CCS(=O)(=O)c1cc(-c2ncccc2NC(=O)C(F)(F)F)cnc1-c1nc2cc(C(F)(F)F)ncc2n1C [Compound P49]
≥ 80%: mortality at 200 ppm [1] | mortality at 24 ppm [3] | mortality at 200 ppm [5]

CCS(=O)(=O)c1cc(-c2ccnc(C)c2)cnc1-c1nc2cc(C(F)(F)F)ncc2n1C [Compound P53]
≥ 80%: mortality at 200 ppm [1] | percent effect (mortality or growth inhibition) at 200 ppm [2] | mortality at 24 ppm [3] | percent control (mortality, anti-feedant effect or growth inhibition) at 200 ppm [7] | percent control (mortality, anti-feedancy or growth inhibition) at 12.5 ppm [8] | mortality at 200 ppm [5]

CCS(=O)(=O)c1cc(-c2cnc(N)nc2C)cnc1-c1nc2cc(C(F)(F)F)ncc2n1C [Compound P58]
≥ 80%: mortality at 200 ppm [1] | percent effect (mortality or growth inhibition) at 200 ppm [2] | mortality at 24 ppm [3] | mortality at 200 ppm [4] | mortality at 200 ppm [5]

CCS(=O)(=O)c1cc(-c2cncs2)cnc1-c1nc2cc(C(F)(F)F)ncc2n1C [Compound P60]
≥ 80%: mortality at 200 ppm [1] | percent effect (mortality or growth inhibition) at 200 ppm [2] | mortality at 24 ppm [3] | percent control (mortality, anti-feedant effect or growth inhibition) at 200 ppm [7] | mortality at 200 ppm [4] | mortality at 200 ppm [5]

CCS(=O)(=O)c1cc(-c2ncncc2F)cnc1-c1nc2cc(C(F)(F)F)ncc2n1C [Compound P61]
≥ 80%: mortality at 200 ppm [1] | percent effect (mortality or growth inhibition) at 200 ppm [2] | mortality at 24 ppm [3] | percent control (mortality, anti-feedant effect or growth inhibition) at 200 ppm [7] | percent control (mortality, anti-feedancy or growth inhibition) at 12.5 ppm [8] | mortality at 200 ppm [4] | mortality at 200 ppm [5]

CCS(=O)(=O)c1cc(-c2cncc(C#N)c2)cnc1-c1nc2cc(C(F)(F)F)ncc2n1C [Compound P67]
≥ 80%: mortality at 200 ppm [6] | mortality at 200 ppm [1] | percent effect (mortality or growth inhibition) at 200 ppm [2] | mortality at 24 ppm [3] | mortality at 200 ppm [4] | mortality at 200 ppm [5]

CCS(=O)(=O)c1cc(-n2cccn2)cnc1-c1nc2cc(C(F)(F)F)ncc2n1C [Compound P84]
≥ 80%: mortality at 200 ppm [1] | percent effect (mortality or growth inhibition) at 200 ppm [2] | mortality at 24 ppm [3] | percent control (mortality, anti-feedant effect or growth inhibition) at 200 ppm [7] | percent control (mortality, anti-feedancy or growth inhibition) at 12.5 ppm [8] | mortality at 200 ppm [4] | mortality at 200 ppm [5]

CCS(=O)(=O)c1cc(-n2cnc(C(F)(F)F)c2)cnc1-c1nc2cc(C(F)(F)F)ncc2n1C [Compound P87]
≥ 80%: mortality at 200 ppm [1] | mortality at 24 ppm [3] | mortality at 200 ppm [4]

CCS(=O)(=O)c1cc(-n2ccc(C)n2)cnc1-c1nc2cc(C(F)(F)F)ncc2n1C [Compound P102]
≥ 80%: mortality at 200 ppm [1] | percent effect (mortality or growth inhibition) at 200 ppm [2] | mortality at 24 ppm [3] | percent control (mortality, anti-feedant effect or growth inhibition) at 200 ppm [7] | mortality at 200 ppm [4] | mortality at 200 ppm [5]

CCS(=O)(=O)c1cc(-c2nccc(C)n2)cnc1-c1nc2cc(C(F)(F)F)ncc2n1C [Compound P103]
≥ 80%: mortality at 200 ppm [6] | mortality at 200 ppm [1] | percent effect (mortality or growth inhibition) at 200 ppm [2] | percent control (mortality, anti-feedant effect or growth inhibition) at 200 ppm [7] | percent control (mortality, anti-feedancy or growth inhibition) at 12.5 ppm [8] | mortality at 200 ppm [4] | mortality at 200 ppm [5]

CCS(=O)(=O)c1cc(-c2cc(OC)ccn2)cnc1-c1nc2cc(C(F)(F)F)ncc2n1C [Compound P109]
≥ 80%: mortality at 200 ppm [1] | percent effect (mortality or growth inhibition) at 200 ppm [2] | mortality at 24 ppm [3] | percent control (mortality, anti-feedant effect or growth inhibition) at 200 ppm [7] | mortality at 200 ppm [4] | mortality at 200 ppm [5]
